Test results: publication PMC6858451, “Rhesus Theta Defensin 1 Promotes Long Term Survival in Systemic Candidiasis by Host Directed Mechanisms” (Scientific Reports, 2019)
In brackets after ≈: the same amount, converted by molar mass.

Experiments:
C. albicans 43001 = assay: MIC/MFC, broth microdilution (modified CLSI M27-A2); assay type: cell-based
Description: (§1) C. albicans strains were tested against RTD-1, fluconazole, and caspofungin in microdilution broth in accordance with Clinical and Laboratory Standards Institute (CLSI) document M27-A2 with the exception that 25 mM MOPS was used in place of 165 mM MOPS, as described previously. Overnight cultures were harvested by centrifugation, washed twice with Ca^2+ and Mg^2+-free PBS, pH 7.2, and suspended in test medium (RPMI 1640 medium, 25 mM MOPS, 2 mM L-glutamine) at 10^4 CFU/ml[62]. Incubations were conducted in flat bottom, 96-well microtiter plates (Greiner bio-one, Monroe, NC) containing 0.2 ml test medium per well. Duplicate 0.1 ml aliquots of serial two-fold dilutions of peptides and antifungal drugs were dispensed into wells, each of which was inoculated with 0.1 ml of fungal cell suspension containing 1 × 10^3 CFU. Plates were incubated at 30 °C for 48 hours after which A600 was determined using a SpectraMax M5e plate reader.
(§2) Minimal fungicidal concentration (MFC) was determined by plating, on YPD plates, 10 µl from wells in MIC assay without cell growth and the first well with measurable turbidity as described[63]–[66] and corresponding aliquots from the no-agent controls. […] MFC is reported as the lowest concentration of peptide or antifungal drug that killed ≥99% of the input organisms.
(§3) MICs and MFCs of RTD-1 were also performed in the presence of 50% mouse serum. Serum was prepared from blood collected by cardiac puncture from BALB/c mice. After coagulation at room temperature, serum was collected by centrifugation (200 g for 10 min followed by 23,000 g for 15 min), and diluted with an equal volume of yeast inoculum in MIC test medium described above.

C. albicans 53264 [1] = assay: as above; assay type: cell-based
Description: as §1, §2, §3

C. albicans SC5314 [2] = assay: as above; assay type: cell-based; conditions: Candida albicans
Description: as §1, §2, §3

[3] = tested on: C. albicans 53264 biofilms; assay: Biofilm XTT metabolic assay; assay type: cell-based; conditions: pre-adhesion, 2 h adherent and 24 h mature biofilms
Description: (§4) The antifungal activities of RTD-1, caspofungin and fluconazole were evaluated against biofilms of C. albicans SC5314 and 53264 essentially as described by Pierce et al.[67]. Briefly, biofilms established for 0 h (preadhesion), 2 h (adherent), or 24 h (mature) were developed by adding 1 × 10^5 yeast cells in 50 or 100 µl of RPMI-1640 to wells of flat-bottom 96-well microtiter plates (Costar, Corning, NY). Fifty or 100 µl aliquots of serial 2-fold dilutions of peptide or antifungal drugs were added to wells in triplicate and incubated for 24 h or 48 h prior to analysis of biofilm metabolic activities. Concentrations of reagents used were as follows: RTD-1 - 0.09 – 100 µg/ml (0.05–48 µM), Fluco – 1–250 µg/ml (3.3–816.3 µM); Caspo- 0.003–8 µg/ml ([…]–7.3 µM). Analysis of the effect of each agent on Candida biofilms was performed using an XTT colorimetric assay. One hundred µl of 1 µM XTT/menadione added to each biofilm well, plates were incubated in the dark for 3 h at 37 °C, and 80 µl of supernatant was transferred to a new 96-well flat-bottom microtiter plate (Greiner Bio-one, Monroe, NC). Absorbance was measured at 490 nm on a SpectraMax® i3x (Molecular Devices). Readings were plotted as average of triplicates after subtracting the corresponding values for negative controls (XTT/menadione only).

[4] = tested on: C. albicans SC5314 biofilms; assay: Biofilm XTT metabolic assay; assay type: cell-based; conditions: pre-adhesion conditions
Description: as §4

C. albicans SC5314 [5] = assay: Systemic candidiasis model, survival and renal fungal burden; assay type: in vivo, BALB/c mice
Description: The efficacy of RTD-1 in vivo was evaluated in an established model of systemic candidiasis using C. albicans SC5314. Both immunocompetent and immunosuppressed mouse models are employed in preclinical studies of systemic candidiasis. Since many of our preliminary studies employed the […] model, we conducted efficacy studies with RTD-1 and reference antifungal drugs in immunocompetent BALB/c mice. Mice were challenged i.v. with 3 × 10^5 blastospores at T = 0, which rapidly produces disseminated candidiasis and colonizes major organs in a manner resembling systemic candidiasis in humans. […] We analyzed the effect of a single 5 mg/kg dose of RTD-1 administered i.v., s.c., or i.p. immediately after i.v. fungal challenge, with i.p. saline as vehicle control. Fluco and Caspo, administered i.p. at 5 mg/kg, were used as drug comparators. […] In subsequent studies, antifungal agents were administered i.p. to circumvent potentially confounding effects resulting from treatment by the same route as infection, which was i.v. in all experiments.
(§5) BALB/c female mice (7–8 weeks old) and CD-1 female mice (4–5 weeks old) were obtained from Charles River Laboratories and allocated randomly in groups of five mice per cage. Mice were maintained on a 12 h light/dark cycle in thermostatically controlled rooms for the duration of the experiment. C. albicans inocula were prepared fresh each day from saturated cultures grown overnight in YPD medium, washed in sterile PBS, and fungi were counted with hemocytometer. Stock suspensions were prepared in sterile PBS. BALB/c mice were challenged with 2 × 10^6 CFU/ml wild-type C. albicans reference strain SC5314, while CD-1 mice were challenged with 1.8 × 10^7 CFU/ml (0.15–0.2 ml) C. albicans clinical isolate 53264 by i.v. injection into the lateral caudal tail vein using a 28 G 1/2 inch needle. Animals were treated by i.v., s.c., or i.p. routes immediately post-infection (p.i.) or 24 h p.i. with sterile saline (control), RTD-1, fluconazole, or caspofungin administered at the concentrations indicated in a 0.200 ml. Mice were weighted and monitored daily for general clinical condition. Mice were euthanized as approved by the USC IACUC and in compliance with the National Institutes of Health Guide for the Care and Use of Laboratory Animals. All experiments were repeated at least three times.
(§6) To assess systemic fungal clearance, renal fungal burden was determined. Mice were euthanized at times indicated, and both kidneys were weighed, homogenized in 5 ml of sterile PBS, and serial dilutions of homogenate were plated on YPD agar plates and incubated at 30 °C for 2 days. CFU per gram of kidney was calculated.

C. albicans 53264 [6] = assay: Systemic MDR candidiasis model, survival and renal fungal burden; assay type: in vivo, CD-1 mice; conditions: 5 mg/kg i.p. once per day for 7 days beginning 24 h p.i.; 1.8 × 10^7 blastospores i.v.; 40 days
Description: (as in Fig. 3d). CD-1, rather than BALB/c mice were used in the C. albicans 53264 challenge studies as this mouse strain was employed by Wiederhold et al. in the assessment of caspofungin efficacy against this pathogen. […] Fungal burdens were determined in kidneys of long term survivors in the RTD-1, Caspo, and Fluco-treated cohorts (euthanized at day 40) and from moribund mice from the survival study in Fig. 7a.
as §5, §6

[7] = tested on: clinical isolate of C. albicans; conditions: 10 mg/kg i.p. daily beginning 24 h after infection; cited from earlier work
Text: Despite the remarkable in vitro properties of HDPs, efforts to develop them as therapeutics have met with limited success. Barriers encountered include lack of peptide stability, toxicity, adverse proinflammatory properties, and poor bioavailability.

Compound: OC(Cn1cncn1)(Cn1cncn1)c1ccc(F)cc1F [Fluco, fluconazole]
- MIC (C. albicans 43001; Candida albicans, 43001, 48 h): > 256 µg/mL
- MFC (C. albicans 43001; Candida albicans, 43001, RPMI, plating of MIC wells on YPD, ≥99% killing of input inoculum): > 256 µg/mL
- MIC (C. albicans 53264 [1]; Candida albicans, 53264, 48 h): > 256 µg/mL
- MFC (C. albicans 53264 [1]; Candida albicans, 53264, RPMI, plating of MIC wells on YPD, ≥99% killing of input inoculum): > 256 µg/mL
- MIC (C. albicans SC5314 [2]; RPMI 1640, 25 mM MOPS, 2 mM L-glutamine, 1 × 10^3 CFU/well, 30 °C, 48 h, A600, complete inhibition of growth, duplicate): 64 µg/mL (≈ 209 µM)
- MFC (C. albicans SC5314 [2]; RPMI, plating of MIC wells on YPD, ≥99% killing of input inoculum): > 256 µg/mL
- biofilm inhibition (XTT) [3]: highly resistant
- biofilm inhibition (XTT) [4]: more effective than RTD-1 at concentrations below 50 µg/ml
- survival (C. albicans SC5314 [5]; 5 mg/kg i.p. once a day for 7 days, first dose 24 h after infection, 30 d): markedly enhanced survival
- survival (C. albicans SC5314 [5]; single 5 mg/kg dose at T = 0 (RTD-1 i.v., s.c. or i.p.; Fluco, Caspo i.p.), 3 × 10^5 blastospores i.v., 30 days, vs saline): effective in enhancing survival
- survival (log-rank) (C. albicans 53264 [6]): significantly (P < 0.0001) improved survival

Compound: IDR-1018
- renal fungal burden [7]: similarly modest reduction in renal fungal burden
- survival [7]: modestly improved survival up to 8 days p.i.
